{
  "source": "paper PMC6423129",
  "about": "“Activity and structural analysis of GRL-117C: a novel small molecule CCR5 inhibitor active against R5-tropic HIV-1s” (Scientific Reports, 2019)",
  "key": {"R5-HIV-1BaL": {"system": "R5-HIV-1BaL", "experiment": "p24 assay using PBMCs and R5-HIV-1BaL", "assay_type": "cell-based", "conditions": "Human immunodeficiency virus 1, BAL, PBMC, 168 h, Ba-L (PBMCs), day 7", "description": "(§1) MAGI-CCR5 cells[18] were maintained in DMEM supplemented with 10% fetal calf serum (FCS: Gemini Bio-Products, West Sacramento, CA), 200 μg/ml G418, 100 μg/ml hygromycin B, and 100 μg/ml zeomycin. The Chinese hamster ovary (CHO) cells expressing CCR5[19] were maintained in Ham’s F-12 medium (GIBCO-BRL, Rockville, MD) supplemented with 10% FCS, 50 U/ml penicillin, and 50 μg/ml streptomycin in the presence of 5 μg/ml blasticidin S hydrochloride. TZM-bl cells were obtained from the NIH AIDS Reagent Program, and were cultured in DMEM with 10% FCS. Peripheral blood mononuclear cells (PBMCs) were isolated from buffy coats of HIV-1 seronegative individuals, and were activated with 10 μg/ml phytohemagglutinin (PHA) prior to use[16]. A laboratory wild-type R5-HIV-1 strain (HIV-1Ba-L)[37] was employed for drug susceptibility assays. AD101 (experimental CCR5 inhibitor) and VVC-resistant HIV clones[7],[8] were provided by Dr. John P. Moore of Cornell University for this study. The clones were propagated with activated PBMCs, and were used for the assays. A clinical HIV-1 strain, HIV-1KP-5pc, and an MVC-resistant isolate, HIV-1KP-5mvcR, were prepared and used for antiviral assays, as previously described[10],[38]. The following reagents (plasmids) for T/F HIV-1 viruses[22],[24] were obtained through the NIH AIDS Reagent Program, Division of AIDS, NIAID, NIH: pCH040.c/2625 (cat# 11740), pCH106.c/2633 (cat# 11743), pTHRO.c/2626 (cat# 11745), and pCH058.c/2960 (cat# 11856), from Dr. John Kappes and Dr. Christina Ochsenbauer.\n(§2) Antiviral assays using PHA-PBMCs (p24 assay) were conducted as previously reported[16],[38]. In brief, PHA-PBMCs (1 × 10^6/ml) were exposed to 50 TCID50 of HIV-1Ba-L or drug-resistant HIV-1 infectious clones in the presence or absence of various concentrations of drugs; 10-fold serial dilutions were performed in 96-well microculture plates. The amount of p24 antigens produced by the cells was determined on day 7 in the culture via a commercially available ELISA kit (PerkinElmer). The p24 production level in drug-free control cell cultures was used as the reference. […] Antiviral assays using MAGI-CCR5 cells (MAGI assay) were conducted as previously reported[16],[39]. Single-round virus infection assays using TZM-bl cells infected with R5-HIV-1s (HIV-1YU2, HIV-1KP-5pc, and HIV-1KP-5mvcR)[10] were also conducted as previously described."}, "HIV-1KP-5mvcR": {"system": "HIV-1KP-5mvcR", "experiment": "TZM-bl single-round infection assay, MVC-resistant HIV-1KP-5mvcR", "assay_type": "cell-based", "description": "as §1, §2"}, "[1]": {"system": "D1/85.16 cl.23 (VVC resistant)", "experiment": "microbe, parasite or virus in culture", "assay_type": "cell-based, HIV-1", "description": "as §1, §2"}, "[2]": {"system": "CC101.19 cl.7 (AD101 resistant)", "experiment": "microbe, parasite or virus in culture", "assay_type": "cell-based, HIV-1", "description": "as §1, §2"}, "[3]": {"conditions": "Human immunodeficiency virus 1, TZM-bl"}},
  "data": [
    {"molecule": "C=CCN(C(=O)OCc1ccc([N+](=O)[O-])cc1)C1CC2CCC(C1)N2CCC(C)(CN(C)S(=O)(=O)c1ccccc1)c1ccccc1", "note": "(centres unmarked) [GRL-117C]", "values": [
      {"measurement": "IC50", "setting": "R5-HIV-1BaL", "value": 8.1, "unit": "nM"},
      {"measurement": "IC90", "setting": "R5-HIV-1BaL", "value": 48.3, "unit": "nM"},
      {"measurement": "IC50 against HIV-1KP-5mvcR relative to that of MVC", "setting": "HIV-1KP-5mvcR; 686 nM vs MVC 41 nM", "value": "more than 10 fold"},
      {"measurement": "IC50", "setting": "HIV-1KP-5mvcR; [3]", "value": "686 ± 89", "unit": "nM"},
      {"measurement": "IC90", "setting": "HIV-1KP-5mvcR; [3]", "value": "> 100", "unit": "nM"},
      {"measurement": "IC50", "setting": "[1]; D1/85.16 cl.23 (VVC resistant)", "value": 29.8, "unit": "nM"},
      {"measurement": "IC90", "setting": "[1]; Human immunodeficiency virus 1", "value": 415, "unit": "nM"},
      {"measurement": "IC50", "setting": "[1]; Human immunodeficiency virus 1, D1/85.16 cl.23 (VVC resistant)", "value": "< 40", "unit": "nM"},
      {"measurement": "IC50", "setting": "[2]; CC101.19 cl.7 (AD101 resistant)", "value": 32.5, "unit": "nM"},
      {"measurement": "IC90", "setting": "[2]; Human immunodeficiency virus 1", "value": 296, "unit": "nM"},
      {"measurement": "IC50", "setting": "[2]; Human immunodeficiency virus 1, CC101.19 cl.7 (AD101 resistant)", "value": "< 40", "unit": "nM"}
    ]}
  ]
}
